Measurements taken from publication PMC3791872 (Bioscience Reports, 2013).
Read-outs that look alike come from different tables or passages of the source.

Legend:
[1] = molecular target: T1, SsoMcm (Sulfolobus solfataricus Mcm protein) complex (Saccharolobus solfataricus, UniProt Q9UXG1); experiment: SsoMcm helicase assay; format: biochemical; conditions: 1 mM, 65°C, Figure S3
T1 sequence (Q9UXG1 1-686): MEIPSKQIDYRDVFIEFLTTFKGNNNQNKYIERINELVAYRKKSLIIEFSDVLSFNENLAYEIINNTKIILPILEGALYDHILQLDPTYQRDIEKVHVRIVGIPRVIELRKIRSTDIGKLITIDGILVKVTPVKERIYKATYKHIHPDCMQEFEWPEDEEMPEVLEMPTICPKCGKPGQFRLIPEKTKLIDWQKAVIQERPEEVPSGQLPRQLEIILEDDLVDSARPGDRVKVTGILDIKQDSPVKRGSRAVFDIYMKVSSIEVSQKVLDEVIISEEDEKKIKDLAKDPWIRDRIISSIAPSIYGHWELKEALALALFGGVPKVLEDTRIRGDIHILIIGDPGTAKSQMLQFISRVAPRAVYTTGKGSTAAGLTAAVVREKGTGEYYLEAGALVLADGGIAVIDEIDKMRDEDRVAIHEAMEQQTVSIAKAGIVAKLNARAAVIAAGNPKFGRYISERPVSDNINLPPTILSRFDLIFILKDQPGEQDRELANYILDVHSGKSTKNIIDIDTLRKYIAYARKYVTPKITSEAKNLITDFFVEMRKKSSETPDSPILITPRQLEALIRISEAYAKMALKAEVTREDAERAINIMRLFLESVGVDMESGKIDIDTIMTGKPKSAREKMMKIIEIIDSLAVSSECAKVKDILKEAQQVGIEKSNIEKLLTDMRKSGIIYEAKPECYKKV
Procedure: Helicase assays were performed essentially as described. Synthetic replication forks were prepared by annealing oligos 233 and 235 [IDT (Coralville), oligo 233 5′(T)40[…]; oligo 235 5′ […](T)40] and then filling in the recessed 3′-end with [α32P]dATP and unlabelled dNTPs using Klenow Fragment. Briefly, reactions ([…]) were performed in 1× helicase assay buffer [20 mM Tris/HCl (pH 7.5), 10 mM MgOAc, 20% (v/v) glycerol, 100 μM EDTA and 5 mM DTT (dithiothreitol)] and contained a final concentration of 1 nM fork substrate, 5 mM ATP, 40 mM creatine phosphate, […] creatine kinase, 33 μg/ml BSA. Reactions containing Mcm2-7 and Mcm467 were supplemented with 200 mM potassium glutamate. Reactions containing SsoMcm were incubated at 65°C, those containing T4 gp41 were incubated for 30 min at 37°C, and all other reactions were incubated at 37°C for 1 h. The products were separated by 10% (w/v) native PAGE, the resulting gels dried and the radioactivity quantified using a Fuji FLA-5100 phosphoimager. […] ATP was separated from ADP by PEI (polyethyleneimine) thin layer chromatography, and the ratio of ATP:ADP was quantified using a Fuji FLA-5100 phosphoimager. […] Protein–ssDNA binding was determined with a double filter-binding assay using an ssDNA probe (oligo 826, 5′[…]) that was 5′-radiolabelled using T4 polynucleotide kinase and [γ32P]ATP [16]. […]

[2] = test system: pUC19; experiment: DNA intercalation assay (Topo I-relaxed plasmid); format: biochemical; conditions: 1 mM inhibitor added after plasmid relaxation (Figure 3C)
Description: To examine this model, we tested our inhibitors in a standard topoisomerase assay. The rationale of this assay is that intercalating compounds will introduce supercoils into a fully relaxed plasmid. Topo I will remove these introduced supercoils, but after quenching and gel electrophoresis the intercalator will diffuse away and produce a detectable compensatory supercoiling increase.

[3] = test system: S. cerevisiae ∆erg6 mcm4chaos3 (UPY1056); experiment: Yeast growth inhibition, 96-well assay, ∆erg6 mcm4chaos3 strain; format: cell-based; conditions: Saccharomyces cerevisiae; growth over 24 h
[4] = molecular target: T2, Mcm467 (Saccharomyces cerevisiae, UniProt P30665+P38132+P53091); experiment: Steady-state ATP hydrolysis by Mcm467; format: biochemical; conditions: 1 mM compound, 100 nM hexamer
T2 construct: made in house; host or cells: baculovirus-infected insect cells
T2 sequence (P30665 whole entry): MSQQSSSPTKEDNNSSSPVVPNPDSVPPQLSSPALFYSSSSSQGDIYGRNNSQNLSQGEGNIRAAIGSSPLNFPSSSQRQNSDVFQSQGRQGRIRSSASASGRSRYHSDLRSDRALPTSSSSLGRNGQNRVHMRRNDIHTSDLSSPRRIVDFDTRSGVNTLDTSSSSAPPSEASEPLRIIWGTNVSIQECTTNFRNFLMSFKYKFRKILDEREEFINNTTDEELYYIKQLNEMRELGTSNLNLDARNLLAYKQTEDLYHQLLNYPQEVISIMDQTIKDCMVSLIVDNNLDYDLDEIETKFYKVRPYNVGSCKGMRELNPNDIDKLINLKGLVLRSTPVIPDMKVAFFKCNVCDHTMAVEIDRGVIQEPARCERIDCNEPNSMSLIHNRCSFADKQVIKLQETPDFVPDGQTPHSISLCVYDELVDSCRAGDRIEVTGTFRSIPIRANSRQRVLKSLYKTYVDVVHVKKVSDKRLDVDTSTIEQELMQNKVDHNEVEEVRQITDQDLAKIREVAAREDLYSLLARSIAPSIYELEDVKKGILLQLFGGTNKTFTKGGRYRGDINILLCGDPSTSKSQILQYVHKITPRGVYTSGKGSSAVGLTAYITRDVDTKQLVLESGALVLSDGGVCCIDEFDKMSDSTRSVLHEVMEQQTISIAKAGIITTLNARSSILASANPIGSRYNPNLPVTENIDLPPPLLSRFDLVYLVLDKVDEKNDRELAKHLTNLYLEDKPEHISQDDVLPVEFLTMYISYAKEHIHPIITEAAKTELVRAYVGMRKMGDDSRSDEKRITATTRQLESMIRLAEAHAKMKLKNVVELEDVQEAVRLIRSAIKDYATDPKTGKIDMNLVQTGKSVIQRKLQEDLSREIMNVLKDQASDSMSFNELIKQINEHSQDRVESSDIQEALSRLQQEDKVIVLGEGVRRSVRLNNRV
T2 sequence (P53091 whole entry): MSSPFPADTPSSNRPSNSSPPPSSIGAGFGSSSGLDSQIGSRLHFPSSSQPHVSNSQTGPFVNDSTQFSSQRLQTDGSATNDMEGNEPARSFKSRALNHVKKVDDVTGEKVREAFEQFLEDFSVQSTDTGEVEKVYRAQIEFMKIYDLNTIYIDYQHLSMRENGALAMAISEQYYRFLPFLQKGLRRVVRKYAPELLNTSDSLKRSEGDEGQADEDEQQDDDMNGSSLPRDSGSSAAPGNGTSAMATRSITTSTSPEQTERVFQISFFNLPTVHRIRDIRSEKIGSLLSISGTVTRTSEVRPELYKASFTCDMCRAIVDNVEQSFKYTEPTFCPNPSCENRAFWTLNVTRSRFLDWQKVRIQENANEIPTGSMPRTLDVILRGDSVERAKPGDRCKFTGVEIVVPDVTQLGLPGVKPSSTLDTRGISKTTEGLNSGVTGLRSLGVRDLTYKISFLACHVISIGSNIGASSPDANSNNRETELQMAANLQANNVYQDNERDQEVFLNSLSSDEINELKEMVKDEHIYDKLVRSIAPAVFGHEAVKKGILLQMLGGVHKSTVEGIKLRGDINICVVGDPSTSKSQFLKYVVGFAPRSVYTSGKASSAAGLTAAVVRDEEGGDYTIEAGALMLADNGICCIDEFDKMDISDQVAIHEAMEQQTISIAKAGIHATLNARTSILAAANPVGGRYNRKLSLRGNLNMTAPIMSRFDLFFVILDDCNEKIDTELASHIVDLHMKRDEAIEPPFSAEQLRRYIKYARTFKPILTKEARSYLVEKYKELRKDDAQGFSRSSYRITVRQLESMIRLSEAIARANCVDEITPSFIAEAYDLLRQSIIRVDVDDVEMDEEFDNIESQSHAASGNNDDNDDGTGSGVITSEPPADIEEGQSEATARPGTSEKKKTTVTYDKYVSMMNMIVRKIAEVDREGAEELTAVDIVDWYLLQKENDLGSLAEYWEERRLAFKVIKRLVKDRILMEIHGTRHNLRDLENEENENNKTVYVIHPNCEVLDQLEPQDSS
T2 sequence (P38132 whole entry): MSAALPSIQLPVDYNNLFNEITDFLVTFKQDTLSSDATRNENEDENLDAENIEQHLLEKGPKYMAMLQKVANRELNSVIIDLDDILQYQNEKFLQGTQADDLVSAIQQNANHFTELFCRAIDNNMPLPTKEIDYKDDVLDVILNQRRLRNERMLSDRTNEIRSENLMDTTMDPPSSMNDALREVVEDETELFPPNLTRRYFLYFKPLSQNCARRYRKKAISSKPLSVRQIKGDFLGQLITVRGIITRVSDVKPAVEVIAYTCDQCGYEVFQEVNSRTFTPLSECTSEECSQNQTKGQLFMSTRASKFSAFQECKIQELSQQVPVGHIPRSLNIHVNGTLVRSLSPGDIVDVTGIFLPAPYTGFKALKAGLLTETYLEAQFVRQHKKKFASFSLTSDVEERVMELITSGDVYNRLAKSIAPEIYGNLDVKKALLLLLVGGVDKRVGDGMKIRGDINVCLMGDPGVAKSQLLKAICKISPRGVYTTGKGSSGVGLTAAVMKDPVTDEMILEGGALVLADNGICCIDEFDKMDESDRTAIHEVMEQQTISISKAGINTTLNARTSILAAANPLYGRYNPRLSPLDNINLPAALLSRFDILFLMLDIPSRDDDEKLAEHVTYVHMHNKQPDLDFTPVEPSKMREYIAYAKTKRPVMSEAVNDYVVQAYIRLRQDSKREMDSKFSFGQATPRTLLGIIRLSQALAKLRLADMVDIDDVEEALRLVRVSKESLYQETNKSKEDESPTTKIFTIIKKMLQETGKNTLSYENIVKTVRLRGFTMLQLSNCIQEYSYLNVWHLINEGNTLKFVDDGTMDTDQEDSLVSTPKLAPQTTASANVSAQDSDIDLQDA

[5] = molecular target: SV40 large TAg (T-antigen) (Simian virus 40, UniProt P03070); experiment: biochemical; set-up: species or system SV40 (simian virus 40); conditions: DNA unwinding
SV40 large TAg (T-antigen), sequence (P03070 whole entry, looked up): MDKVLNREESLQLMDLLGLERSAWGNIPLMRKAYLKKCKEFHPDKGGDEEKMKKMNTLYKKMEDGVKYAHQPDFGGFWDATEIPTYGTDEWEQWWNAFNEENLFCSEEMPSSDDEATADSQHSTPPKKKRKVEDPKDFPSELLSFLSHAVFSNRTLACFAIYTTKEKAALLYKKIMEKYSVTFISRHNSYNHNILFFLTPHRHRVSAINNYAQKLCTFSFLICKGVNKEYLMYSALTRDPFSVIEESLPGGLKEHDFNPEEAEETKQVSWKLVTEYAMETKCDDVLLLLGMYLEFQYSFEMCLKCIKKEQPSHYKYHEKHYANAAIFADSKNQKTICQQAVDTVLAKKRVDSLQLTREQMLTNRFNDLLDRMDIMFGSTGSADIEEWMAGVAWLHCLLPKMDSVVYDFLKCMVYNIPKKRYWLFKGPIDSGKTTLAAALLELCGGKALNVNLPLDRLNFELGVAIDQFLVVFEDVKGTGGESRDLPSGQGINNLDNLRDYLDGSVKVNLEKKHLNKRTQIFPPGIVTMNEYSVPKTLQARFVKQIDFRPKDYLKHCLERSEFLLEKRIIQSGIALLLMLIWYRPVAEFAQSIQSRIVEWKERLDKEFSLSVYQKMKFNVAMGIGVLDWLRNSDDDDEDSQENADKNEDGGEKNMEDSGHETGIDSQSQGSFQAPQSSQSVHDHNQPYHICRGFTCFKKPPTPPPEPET

[6] = test system: S. cerevisiae ∆erg6 (UPY675); experiment: Yeast growth inhibition, 96-well assay, ∆erg6 strain; format: cell-based, Saccharomyces cerevisiae
[7] = molecular target: T2, Mcm467; experiment: ssDNA double filter-binding assay, Mcm467; conditions: 1 mM compound, 150 nM helicase
[8] = molecular target: T3, SV40 large TAg (Simian virus 40, UniProt P03070); experiment: Steady-state ATP hydrolysis by TAg; format: biochemical, SV40 (simian virus 40); conditions: 1 mM compound, 100 nM hexamer
T3 construct: made in house
T3 sequence (P03070 whole entry): as the sequence (P03070 whole entry, looked up) above

[9] = molecular target: DnaB (Escherichia coli, UniProt P0ACB0); experiment: DnaB helicase assay; format: biochemical; conditions: 1 mM, Figure S3
DnaB, sequence (P0ACB0 whole entry, the tested form may be a part): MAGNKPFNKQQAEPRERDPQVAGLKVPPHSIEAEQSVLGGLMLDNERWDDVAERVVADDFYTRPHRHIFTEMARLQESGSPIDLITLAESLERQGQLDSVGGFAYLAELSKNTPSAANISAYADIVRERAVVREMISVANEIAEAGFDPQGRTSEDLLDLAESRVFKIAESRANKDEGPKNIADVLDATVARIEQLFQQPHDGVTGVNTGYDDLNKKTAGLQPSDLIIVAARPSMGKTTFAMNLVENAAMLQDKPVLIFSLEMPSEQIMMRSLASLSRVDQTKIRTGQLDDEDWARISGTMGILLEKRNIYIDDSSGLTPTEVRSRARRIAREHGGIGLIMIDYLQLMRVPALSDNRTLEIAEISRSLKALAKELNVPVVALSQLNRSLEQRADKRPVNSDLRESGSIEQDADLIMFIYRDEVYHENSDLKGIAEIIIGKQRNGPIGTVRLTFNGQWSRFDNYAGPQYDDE
Procedure: Helicase assays were performed essentially as described. Synthetic replication forks were prepared by annealing oligos 233 and 235 [IDT (Coralville), oligo 233 5′(T)40[…]; oligo 235 5′ […](T)40] and then filling in the recessed 3′-end with [α32P]dATP and unlabelled dNTPs using Klenow Fragment. Briefly, reactions ([…]) were performed in 1× helicase assay buffer [20 mM Tris/HCl (pH 7.5), 10 mM MgOAc, 20% (v/v) glycerol, 100 μM EDTA and 5 mM DTT (dithiothreitol)] and contained a final concentration of 1 nM fork substrate, 5 mM ATP, 40 mM creatine phosphate, […] creatine kinase, 33 μg/ml BSA. Reactions containing Mcm2-7 and Mcm467 were supplemented with 200 mM potassium glutamate. Reactions containing SsoMcm were incubated at 65°C, those containing T4 gp41 were incubated for 30 min at 37°C, and all other reactions were incubated at 37°C for 1 h. The products were separated by 10% (w/v) native PAGE, the resulting gels dried and the radioactivity quantified using a Fuji FLA-5100 phosphoimager. Irrespective of the protein used, all helicase assays contained equal molar helicase concentrations (100 nM, assuming in all cases that the active helicase form is hexameric). Steady-state ATP hydrolysis was assayed as published. In short, reactions were set up essentially as in the helicase assay, with minor exceptions. A non-radiolabelled DNA fork was used, helicase concentration was 100 nM (hexamer) the total ATP concentration was 500 μM and included ~0.5 μCi of [α32P]ATP, and the ATP regeneration system was omitted. Reactions were incubated for 1 h at 37°C and stopped by the addition of SDS. ATP was separated from ADP by PEI (polyethyleneimine) thin layer chromatography, and the ratio of ATP:ADP was quantified using a Fuji FLA-5100 phosphoimager. Based on our prior work, conditions were established to ensure that the results shown are within the linear range of the assay. Protein–ssDNA binding was determined with a double filter-binding assay using an ssDNA probe (oligo 826, 5′[…]) that was 5′-radiolabelled using T4 polynucleotide kinase and [γ32P]ATP [16]. For the double filter-binding assay, the helicase concentration was 150 nM (hexamer) and the ssDNA concentration was 4 nM. For all biochemical assays, helicases were preincubated with inhibitors for 20 min at 37°C unless otherwise indicated. […]
against different helicases
Representative helicase activity assays in the presence of the indicated inhibitor were tested, quantiﬁed and standardized as described in the legend to F igures 2 (A) and (B). All helicases were assayed at 100 nM
ﬁnal concentration (hexamer) with inhibitor preincubation prior to ATP […]
F igure S3 Ciproﬂoxacin poor ly inhibits hexameric helicases un- […]
All inhibitors were used at 1 mM ﬁnal concentration. […]

O=C(O)c1cn(C2CC2)c2cc(N3CCNCC3)c(F)cc2c1=O [Ciprofloxacin, ciprofloxacin, reference compound] was tested, and the “inhibition of SsoMcm helicase” value [1] was “none of the tested helicases were substantially inhibited”, the DNA intercalation [2] was “little or no intercalation” and the IC50 [3] was 1300 µM. The “effect on ATP hydrolysis of Mcm467” value [4] was “only modest effects”, the IC50 ([5]; 100 nM complex, read-out: IC50 TAg helicase activity) was 4000 µM and the IC50 ([5]; 100 nM hexamer, inhibitor preincubation, […], read-out: IC50 T-antigen) was 4010 µM. The “growth response of ∆erg6 yeast” value ([6]; Figure 4A) was “demonstrable growth sensitivity”, the IC50 ([6]; Saccharomyces cerevisiae, ∆erg6 strain, growth over 24 h, value (95% CI), read-out: IC50 Yeast) was 590 µM and the “effect on ssDNA binding of Mcm467” value [7] was “only modest effects”. For the same compound, the “effect on ATP hydrolysis of TAg” value [8] was “only modest effects” and the “inhibition of DnaB helicase” value [9] was “none of the tested helicases were substantially inhibited”.
